US12077503B2, “Substituted cyclic amides and their use as herbicides” (FMC CORPORATION, priority 2015, dated 2024)

Tests used:
Type in all cases: in vivo
[1] = system: Kochia (Kochia scoparia); assay: Test A preemergence
In short: (§1)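 Visual injury scores from 0, no effect, to 100, complete control, were assigned versus untreated controls roughly 10 d after treatment in the greenhouse. Test chemicals, formulated with surfactant in a non-phytotoxic solvent, were applied to planted seeds as a preemergence soil spray or postemergence to one- to two-leaf plants 2 to 10 cm tall, in loam–sand soil.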

[2] = system: barnyardgrass (Echinochloa crus-galli); assay: Test A preemergence
In short: as §1

[3] = system: giant foxtail (Setaria faberii); assay: Test A preemergence
In short: as §1

[4] = system: pigweed (Amaranthus retroflexus); assay: Test A preemergence
[5] = system: ragweed (common ragweed, Ambrosia elatior); assay: Test A preemergence
In short: as §1

[6] = system: ryegrass, Italian (Italian ryegrass, Lolium multiflorum); assay: Test A preemergence
In short: as §1

[7] = system: Galium (catchweed bedstraw, Galium aparine); assay: Test A postemergence; details: postemergence, 0 to 100 scale (0 no effect, 100 complete control)
In short: as §1

[8] = system: Kochia (Kochia scoparia); assay: Test A postemergence; details: postemergence, 0 to 100 scale (0 no effect, 100 complete control)
In short: as §1

[9] = system: barnyardgrass (Echinochloa crus-galli); assay: Test A postemergence
In short: as §1

[10] = system: blackgrass (Alopecurus myosuroides); assay: Test A postemergence
In short: as §1

[11] = system: corn (Zea mays); assay: Test A postemergence
In short: as §1

[12] = system: giant foxtail (Setaria faberii); assay: Test A postemergence; details: postemergence, 0 to 100 scale (0 no effect, 100 complete control)
In short: as §1

[13] = system: pigweed (Amaranthus retroflexus); assay: Test A postemergence; details: postemergence, 0 to 100 scale (0 no effect, 100 complete control)
In short: as §1

[14] = system: ragweed (common ragweed, Ambrosia elatior); assay: Test A postemergence; details: postemergence, 0 to 100 scale (0 no effect, 100 complete control)
In short: as §1

[15] = system: ryegrass, Italian (Italian ryegrass, Lolium multiflorum); assay: Test A postemergence; details: postemergence, 0 to 100 scale (0 no effect, 100 complete control)
In short: as §1

[16] = system: wheat (Triticum aestivum); assay: Test A postemergence; details: postemergence, 0 to 100 scale (0 no effect, 100 complete control)
In short: as §1

[17] = system: barnyardgrass (Echinochloa crus-galli); assay: Test B flooded paddy test; details: Flood, 250 g ai/ha; 0 to 100 scale where 0 is no effect and 100 is complete control; 13 to 15 d
In short: (§2)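 Response scored visually against untreated controls, 0 = no effect and 100 = complete control, 13–15 d after treatment in the greenhouse. Compounds added to paddy water held 3 cm above soil surface. Treatment given at 2-leaf stage.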

[18] = system: ducksalad (Heteranthera limosa); assay: Test B flooded paddy test; details: Flood, 250 g ai/ha; 0 to 100 scale where 0 is no effect and 100 is complete control; 13 to 15 d
In short: as §2

[19] = system: rice (Oryra sativa); assay: Test B flooded paddy test; details: Flood, 250 g ai/ha; 0 to 100 scale where 0 is no effect and 100 is complete control; 13 to 15 d
In short: as §2

[20] = system: sedge, umbrella (small-flower umbrella sedge, Cyperus difformis); assay: Test B flooded paddy test; details: Flood, 250 g ai/ha
In short: as §2

[21] = system: lambsquarters (Chenopodium album); assay: Test C preemergence; details: for Plant response rating (scale of 0 to 100), Lambsquarters: 0 is no effect, 100 is complete control; for Plant response rating, Lambsquarters: scale 0 to 100, 0 no effect, 100 complete control
In short: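 Visual 0 (no effect) to 100 (complete control) ratings versus controls, taken 13–15 d after treatment in the greenhouse; dash means no result. Compounds in a surfactant-containing non-phytotoxic solvent blend were applied preemergence to seeds in loam-sand soil or postemergence to 1- to 4-leaf plants (2–18 cm) in peat-based medium.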

[22] = 125 g ai/ha, Preemergence, visual injury after approximately 10 d, 0 to 100 scale where 0 is no effect and 100 is complete control
[23] = 500 g ai/ha, preemergence, 0 to 100 scale, 0 = no effect, 100 = complete control
[24] = 125 g ai/ha, visual rating after approx. 10 d
[25] = 500 g ai/ha, visual injury, approx. 10 d
[26] = 125 g ai/ha, postemergence, visual rating after approx. 10 d, 0 to 100 scale (0 no effect, 100 complete control)
[27] = Postemergence, 500 g ai/ha, 0 to 100 scale where 0 is no effect and 100 is complete control
[28] = 125 g ai/ha, preemergence, visual rating after approx. 10 d, 0 to 100 scale where 0 is no effect and 100 is complete control
[29] = 125 g ai/ha, visual injury after approximately 10 d
[30] = 500 g ai/ha, postemergence, visual injury, 0 to 100 scale (0 no effect, 100 complete control), approx. 10 d

Row | Structure (SMILES) | Plant response rating, Kochia [1, 22] | Plant response rating, Kochia [1, 23] | Plant response rating, Barnyardgrass [2, 22] | Plant response rating, Barnyardgrass [2, 23] | Plant response rating, Foxtail, Giant [3, 22] | Plant response rating, Foxtail, Giant [3, 23] | Plant response rating, Pigweed [4, 23] | Plant response rating, Ragweed [5, 23] | Plant response rating, Ryegrass, Italian [6, 23] | Plant response rating, Galium [7, 25] | Plant response rating, Kochia [8, 25] | Plant response rating, Barnyardgrass [9, 26] | Plant response rating, Blackgrass [10, 26] | Plant response rating, Foxtail, Giant [12, 25] | Plant response rating, Pigweed [13, 25] | Plant response rating, Ragweed [14, 25] | Plant response rating, Ryegrass, Italian [15, 25] | Plant response rating, Wheat [16, 25] | Plant response rating, Barnyardgrass [17] | Plant response rating, Ducksalad [18] | also measured
1 | CN1CC(c2cccc(C(F)(F)F)c2)C(C(=O)Nc2ccccc2S(C)(=O)=O)C1=O (centres unmarked) [Compound 637] | 40 | 60 | 90 | 90 | 90 | 100 | 100 | 70 | 90 | 50 | 30 | 90 | 50 | 90 | 60 | 20 | 20 | 70 | 80 | 100 | Plant response rating, Pigweed [4, 22]: 80; Plant response rating, Ragweed [5, 22]: 40; Plant response rating, Ryegrass, Italian [6, 22]: 50; Plant response rating, Galium [7, 24]: 50; Plant response rating, Kochia [8, 24]: 0; Plant response rating, Barnyardgrass [9, 27]: 90; Plant response rating, Blackgrass [10, 27]: 60; Plant response rating, Corn [11, 26]: 70; Plant response rating, Corn [11, 27]: 70; Plant response rating, Foxtail, Giant [12, 24]: 90; Plant response rating, Pigweed [13, 24]: 50; Plant response rating, Ragweed [14, 24]: 0; Plant response rating, Ryegrass, Italian [15, 24]: 20; Plant response rating, Wheat [16, 24]: 70; Plant response rating, Rice [19]: 10; Plant response rating, Sedge, Umbrella ([20]; 0 to 100 scale where 0 is no effect and 100 is complete control, 13 to 15 d): 0; Plant response rating (scale of 0 to 100), Lambsquarters ([21]; 31 g ai/ha): 25; Plant response rating, Lambsquarters ([21]; 62 g ai/ha): 55; Plant response rating, Lambsquarters ([21]; 125 g ai/ha): 55; Plant response rating, Lambsquarters ([21]; 250 g ai/ha): 70
2 | CN1CC(c2ccc(C(C)(F)F)cc2)C(C(=O)Nc2ccccc2F)C1=O (centres unmarked) [Compound 691] | 80 | 90 | 90 | 90 | 90 | 90 | 80 | 90 | 60 | 70 | 80 | 80 | 50 | 80 | 70 | 60 | 60 | 60 | 70 | 95 | Plant response rating, Pigweed [4, 28]: 70; Plant response rating, Ragweed [5, 28]: 60; Plant response rating, Ryegrass, Italian [6, 28]: 50; Plant response rating, Galium [7, 29]: 70; Plant response rating, Kochia [8, 29]: 70; Plant response rating, Barnyardgrass [9, 30]: 80; Plant response rating, Blackgrass [10, 30]: 60; Plant response rating, Corn ([11]; 125 g ai/ha, postemergence, visual injury after approximately 10 d, 0 to 100 scale (0 no effect, 100 complete control)): 60; Plant response rating, Corn [11, 30]: 90; Plant response rating, Foxtail, Giant [12, 29]: 80; Plant response rating, Pigweed [13, 29]: 40; Plant response rating, Ragweed [14, 29]: 50; Plant response rating, Ryegrass, Italian [15, 29]: 50; Plant response rating, Wheat [16, 29]: 50; Plant response rating, Rice [19]: 25; Sedge, Umbrella plant response rating ([20]; scale of 0 to 100 where 0 is no effect and 100 is complete control): 0; Plant response rating (scale of 0 to 100), Lambsquarters ([21]; 16 g ai/ha): 70; Plant response rating (scale of 0 to 100), Lambsquarters ([21]; 31 g ai/ha): 85; Plant response rating, Lambsquarters ([21]; 62 g ai/ha): 90; Plant response rating, Lambsquarters ([21]; 125 g ai/ha): 90
